Assay results from ChEMBL document CHEMBL1782045, “Discovery, synthesis, and investigation of the antitumor activity of novel piperazinylpyrimidine derivatives” (Eur J Med Chem, 2011).

Columns and labels:
[1] = system: Mast/stem cell growth factor receptor Kit (Homo sapiens), P10721 [D816H]; experiment: Binding affinity to human KIT D816H mutant at 10 uM incubated for 1 hr by kinase binding assay relative to untreated control
M14 = experiment: Cytotoxicity against human M14 cells after 48 hrs by sulforhodamine B assay; type: cell-based; conditions: m14, 48 h
786-0 = experiment: Growth inhibition of human 786-0 cells after 48 hrs by sulforhodamine B assay; type: functional; conditions: 786-0, 48 h
SNB-75 = experiment: Cytotoxicity against human SNB75 cells after 48 hrs by sulforhodamine B assay; type: cell-based; conditions: snb-75, 48 h
HCC 2998 [2] = experiment: Growth inhibition of human HCC2998 cells after 48 hrs by sulforhodamine B assay; type: functional; conditions: HCC 2998, 48 h
[3] = molecular target: Receptor-type tyrosine-protein kinase FLT3 (Homo sapiens) (UniProt P36888); experiment: Binding affinity to human FLT3 at 10 uM incubated for 1 hr by kinase binding assay relative to untreated control
EKVX [4] = experiment: Cytotoxicity against human EKVX cells after 48 hrs by sulforhodamine B assay; type: cell-based
NCI-H460 = experiment: Growth inhibition of human NCI-H460 cells after 48 hrs by sulforhodamine B assay; type: functional; conditions: NCI-H460, 48 h
IGROV-1 [5] = experiment: Cytotoxicity against human IGROV1 cells after 48 hrs by sulforhodamine B assay; type: cell-based; conditions: igrov-1, 48 h
SF-539 = experiment: Cytotoxicity against human SF539 cells after 48 hrs by sulforhodamine B assay; type: cell-based; conditions: sf-539, 48 h
UO-31 = experiment: Cytotoxicity against human UO31 cells after 48 hrs by sulforhodamine B assay; type: cell-based; conditions: uo-31, 48 h
OVCAR-8 = experiment: Cytotoxicity against human OVCAR8 cells after 48 hrs by sulforhodamine B assay; type: cell-based; conditions: ovcar-8, 48 h
SK-MEL-5 [6] = experiment: Cytotoxicity against human SK-MEL-5 cells after 48 hrs by sulforhodamine B assay; type: cell-based; conditions: sk-mel-5, 48 h
[7] = system: Mast/stem cell growth factor receptor Kit (Homo sapiens), P10721 [L576P]; experiment: Binding affinity to human KIT L576P mutant at 10 uM incubated for 1 hr by kinase binding assay relative to untreated control
SK-MEL-28 [8] = experiment: Cytotoxicity against human SK-MEL-28 cells after 48 hrs by sulforhodamine B assay; type: cell-based; conditions: sk-mel-28, 48 h
[9] = molecular target: Platelet-derived growth factor receptor alpha (Homo sapiens) (UniProt P16234); experiment: Binding affinity to human PDGFRA at 10 uM incubated for 1 hr by kinase binding assay relative to untreated control
Hs-578T = experiment: Growth inhibition of human Hs578T cells after 48 hrs by sulforhodamine B assay; type: functional
BT-549 = experiment: Cytotoxicity against human BT549 cells after 48 hrs by sulforhodamine B assay; type: cell-based; conditions: bt-549, 48 h
COLO 205 = experiment: Cytotoxicity against human COLO205 cells after 48 hrs by sulforhodamine B assay; type: cell-based; conditions: colo 205, 48 h
[10] = molecular target: T1, Mitogen-activated protein kinase 12 (Homo sapiens) (UniProt P53778); experiment: Binding affinity to human p38-gamma at 10 uM incubated for 1 hr by kinase binding assay relative to untreated control
T1 sequence (whole entry): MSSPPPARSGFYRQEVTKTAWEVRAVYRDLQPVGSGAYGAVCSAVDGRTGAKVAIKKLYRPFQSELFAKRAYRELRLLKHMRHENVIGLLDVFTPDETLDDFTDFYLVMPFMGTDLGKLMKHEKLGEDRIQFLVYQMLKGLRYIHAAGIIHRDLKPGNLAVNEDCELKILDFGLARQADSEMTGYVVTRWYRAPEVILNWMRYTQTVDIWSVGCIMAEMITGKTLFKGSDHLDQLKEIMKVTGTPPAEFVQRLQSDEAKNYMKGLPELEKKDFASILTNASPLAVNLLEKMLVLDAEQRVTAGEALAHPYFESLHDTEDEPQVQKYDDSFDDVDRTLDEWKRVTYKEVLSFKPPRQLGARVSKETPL

DU-145 = experiment: Cytotoxicity against human DU145 cells after 48 hrs by sulforhodamine B assay; type: cell-based; conditions: du-145, 48 h
UACC-257 [11] = experiment: Cytotoxicity against human UACC257 cells after 48 hrs by sulforhodamine B assay; type: cell-based; conditions: uacc-257, 48 h
UACC-257 [12] = experiment: Growth inhibition of human UACC257 cells after 48 hrs by sulforhodamine B assay; type: functional; conditions: UACC-257, 48 h
[13] = system: Tyrosine-protein kinase ABL1 (Homo sapiens), P00519 [F317I]; experiment: Binding affinity to human phosphorylated ABL1 F317I mutant at 10 uM incubated for 1 hr by kinase binding assay relative to untreated control
[14] = system: Mast/stem cell growth factor receptor Kit (Homo sapiens), P10721 [V560G]; experiment: Inhibition of human KIT V560G using gamma-33P-ATP as substrate assessed as enzyme functional activity at 1 uM by scintillation counting relative to untreated control; design: scale not given: the % may be the effect or the level left
[15] = system: Mast/stem cell growth factor receptor Kit (Homo sapiens), P10721 [D816H]; experiment: Inhibition of human KIT D816H using gamma-33P-ATP as substrate assessed as enzyme functional activity at 1 uM by scintillation counting relative to untreated control; design: scale not given: the % may be the effect or the level left
[16] = system: Mast/stem cell growth factor receptor Kit (Homo sapiens), P10721 [V559D]; experiment: Binding affinity to human KIT V559D mutant at 10 uM incubated for 1 hr by kinase binding assay relative to untreated control
HCC 2998 [17] = experiment: Cytotoxicity against human HCC2998 cells after 48 hrs by sulforhodamine B assay; type: cell-based; conditions: hcc 2998, 48 h
EKVX [18] = experiment: Growth inhibition of human EKVX cells after 48 hrs by sulforhodamine B assay; type: functional
NCI-H522 = experiment: Growth inhibition of human NCI-H522 cells after 48 hrs by sulforhodamine B assay; type: functional; conditions: NCI-H522, 48 h
SK-MEL-2 = experiment: Cytotoxicity against human SK-MEL-2 cells after 48 hrs by sulforhodamine B assay; type: cell-based; conditions: sk-mel-2, 48 h
SK-MEL-5 [19] = experiment: Growth inhibition of human SK-MEL-5 cells after 48 hrs by sulforhodamine B assay; type: functional; conditions: SK-MEL-5, 48 h
MOLT-4 = experiment: Cytotoxicity against human MOLT4 cells after 48 hrs by sulforhodamine B assay; type: cell-based; conditions: molt-4, 48 h
MDA-MB-468 = experiment: Cytotoxicity against human MDA-MB-468 cells after 48 hrs by sulforhodamine B assay; type: cell-based; conditions: mda-mb-468, 48 h
IGROV-1 [20] = experiment: Growth inhibition of human IGROV1 cells after 48 hrs by sulforhodamine B assay; type: functional; conditions: IGROV-1, 48 h
HL-60(TB) = experiment: Growth inhibition of human HL-60(TB) cells after 48 hrs by sulforhodamine B assay; type: functional; conditions: HL-60, 48 h
Malme-3M = experiment: Growth inhibition of human MALME-3M cells after 48 hrs by sulforhodamine B assay; type: functional
MCF7 = experiment: Growth inhibition of human MCF7 cells after 48 hrs by sulforhodamine B assay; type: functional; conditions: MCF7, 48 h
SK-MEL-28 [21] = experiment: Growth inhibition of human SK-MEL-28 cells after 48 hrs by sulforhodamine B assay; type: functional; conditions: SK-MEL-28, 48 h
CCRF-CEM = experiment: Growth inhibition of human CCRF-CEM cells after 48 hrs by sulforhodamine B assay; type: functional

Sequence of Receptor-type tyrosine-protein kinase FLT3 (Homo sapiens) (P36888 whole entry): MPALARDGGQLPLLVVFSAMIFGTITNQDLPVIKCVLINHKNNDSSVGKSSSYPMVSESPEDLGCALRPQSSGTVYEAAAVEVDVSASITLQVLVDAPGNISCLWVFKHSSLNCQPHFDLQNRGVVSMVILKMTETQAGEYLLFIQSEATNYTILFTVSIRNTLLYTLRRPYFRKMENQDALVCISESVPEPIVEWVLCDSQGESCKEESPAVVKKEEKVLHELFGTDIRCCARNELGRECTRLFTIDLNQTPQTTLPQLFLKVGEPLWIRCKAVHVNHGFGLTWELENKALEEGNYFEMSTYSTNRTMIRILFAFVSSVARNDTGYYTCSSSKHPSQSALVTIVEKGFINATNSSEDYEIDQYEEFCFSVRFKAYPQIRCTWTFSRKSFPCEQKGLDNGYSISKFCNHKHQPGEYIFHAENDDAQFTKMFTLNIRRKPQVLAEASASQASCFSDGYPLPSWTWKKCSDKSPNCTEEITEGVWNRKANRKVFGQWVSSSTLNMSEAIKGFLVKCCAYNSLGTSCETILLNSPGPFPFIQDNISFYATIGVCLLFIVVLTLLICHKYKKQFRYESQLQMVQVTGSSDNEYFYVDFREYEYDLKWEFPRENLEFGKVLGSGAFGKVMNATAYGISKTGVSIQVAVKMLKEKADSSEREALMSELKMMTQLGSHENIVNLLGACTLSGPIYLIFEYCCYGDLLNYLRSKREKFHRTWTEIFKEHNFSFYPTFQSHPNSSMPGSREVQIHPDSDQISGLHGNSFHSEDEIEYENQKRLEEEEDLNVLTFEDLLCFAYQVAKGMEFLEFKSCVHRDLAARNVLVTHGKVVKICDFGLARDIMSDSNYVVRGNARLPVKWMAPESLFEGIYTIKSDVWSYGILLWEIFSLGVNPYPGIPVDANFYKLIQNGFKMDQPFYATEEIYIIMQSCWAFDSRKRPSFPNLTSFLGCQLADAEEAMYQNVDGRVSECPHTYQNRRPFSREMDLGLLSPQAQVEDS
Sequence of Mast/stem cell growth factor receptor Kit (Homo sapiens), P10721 [D816H] (P10721 whole entry D816H): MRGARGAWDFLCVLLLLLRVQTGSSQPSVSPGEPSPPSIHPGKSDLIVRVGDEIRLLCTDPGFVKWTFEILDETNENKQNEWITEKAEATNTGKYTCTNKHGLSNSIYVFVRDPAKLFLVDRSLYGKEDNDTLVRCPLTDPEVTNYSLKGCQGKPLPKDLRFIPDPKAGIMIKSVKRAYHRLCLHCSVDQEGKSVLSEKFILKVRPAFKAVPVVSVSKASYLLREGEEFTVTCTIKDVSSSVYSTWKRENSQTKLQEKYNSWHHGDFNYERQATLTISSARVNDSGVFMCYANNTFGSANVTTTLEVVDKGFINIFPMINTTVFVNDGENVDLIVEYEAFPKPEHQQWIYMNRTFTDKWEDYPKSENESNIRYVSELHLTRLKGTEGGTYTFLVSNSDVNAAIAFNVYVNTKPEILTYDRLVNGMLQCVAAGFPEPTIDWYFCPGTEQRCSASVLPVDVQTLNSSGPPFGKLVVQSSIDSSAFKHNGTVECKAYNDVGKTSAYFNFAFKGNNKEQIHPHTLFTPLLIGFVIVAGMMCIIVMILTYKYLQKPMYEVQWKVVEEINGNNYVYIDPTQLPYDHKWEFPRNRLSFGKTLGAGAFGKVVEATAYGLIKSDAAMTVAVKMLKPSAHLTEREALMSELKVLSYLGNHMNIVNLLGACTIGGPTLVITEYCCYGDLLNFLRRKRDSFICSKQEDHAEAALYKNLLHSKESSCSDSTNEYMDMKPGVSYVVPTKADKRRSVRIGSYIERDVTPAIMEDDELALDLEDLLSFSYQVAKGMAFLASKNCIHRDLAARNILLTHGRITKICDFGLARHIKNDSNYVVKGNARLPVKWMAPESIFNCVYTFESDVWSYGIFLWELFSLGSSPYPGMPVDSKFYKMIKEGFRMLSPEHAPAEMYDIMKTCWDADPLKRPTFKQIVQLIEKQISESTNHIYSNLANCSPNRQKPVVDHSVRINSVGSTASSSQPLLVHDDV
Sequence of Tyrosine-protein kinase ABL1 (Homo sapiens), P00519 [F317I] (P00519 whole entry F317I): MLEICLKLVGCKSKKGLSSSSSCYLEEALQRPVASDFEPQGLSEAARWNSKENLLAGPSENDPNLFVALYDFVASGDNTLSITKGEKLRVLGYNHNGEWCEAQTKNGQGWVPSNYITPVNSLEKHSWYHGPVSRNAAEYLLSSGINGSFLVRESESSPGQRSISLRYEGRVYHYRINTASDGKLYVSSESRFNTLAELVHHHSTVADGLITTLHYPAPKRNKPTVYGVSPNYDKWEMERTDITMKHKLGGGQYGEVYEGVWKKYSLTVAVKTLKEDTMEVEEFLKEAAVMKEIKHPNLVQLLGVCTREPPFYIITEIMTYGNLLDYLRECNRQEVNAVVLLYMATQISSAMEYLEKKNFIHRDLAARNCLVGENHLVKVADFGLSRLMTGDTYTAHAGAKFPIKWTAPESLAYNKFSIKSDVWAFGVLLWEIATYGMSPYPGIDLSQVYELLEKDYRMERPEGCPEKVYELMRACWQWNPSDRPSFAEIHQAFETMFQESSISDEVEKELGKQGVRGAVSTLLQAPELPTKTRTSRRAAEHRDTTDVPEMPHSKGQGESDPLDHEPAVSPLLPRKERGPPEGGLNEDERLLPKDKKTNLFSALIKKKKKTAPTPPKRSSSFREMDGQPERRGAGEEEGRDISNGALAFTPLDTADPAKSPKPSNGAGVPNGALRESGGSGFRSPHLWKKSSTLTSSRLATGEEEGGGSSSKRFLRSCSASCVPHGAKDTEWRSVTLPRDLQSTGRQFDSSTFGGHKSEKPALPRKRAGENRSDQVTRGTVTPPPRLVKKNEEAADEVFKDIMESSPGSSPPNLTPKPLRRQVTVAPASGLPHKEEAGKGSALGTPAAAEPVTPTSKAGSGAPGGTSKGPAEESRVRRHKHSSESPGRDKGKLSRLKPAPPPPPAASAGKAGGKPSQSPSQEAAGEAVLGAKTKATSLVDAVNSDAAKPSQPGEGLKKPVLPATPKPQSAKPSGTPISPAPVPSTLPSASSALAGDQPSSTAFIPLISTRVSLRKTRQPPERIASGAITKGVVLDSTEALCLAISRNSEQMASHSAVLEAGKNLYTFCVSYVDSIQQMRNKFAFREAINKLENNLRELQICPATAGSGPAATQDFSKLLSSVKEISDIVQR
Sequence of Mast/stem cell growth factor receptor Kit (Homo sapiens), P10721 [V559D] (P10721 whole entry V559D): as the sequence (P10721 whole entry D816H) above, with V559D, H816D counted along it
Sequence of Mast/stem cell growth factor receptor Kit (Homo sapiens), P10721 [L576P] (P10721 whole entry L576P): as the sequence (P10721 whole entry D816H) above, with L576P, H816D counted along it
Sequence of Mast/stem cell growth factor receptor Kit (Homo sapiens), P10721 [V560G] (P10721 whole entry V560G): as the sequence (P10721 whole entry D816H) above, with V560G, H816D counted along it
Sequence of Platelet-derived growth factor receptor alpha (Homo sapiens) (P16234 whole entry): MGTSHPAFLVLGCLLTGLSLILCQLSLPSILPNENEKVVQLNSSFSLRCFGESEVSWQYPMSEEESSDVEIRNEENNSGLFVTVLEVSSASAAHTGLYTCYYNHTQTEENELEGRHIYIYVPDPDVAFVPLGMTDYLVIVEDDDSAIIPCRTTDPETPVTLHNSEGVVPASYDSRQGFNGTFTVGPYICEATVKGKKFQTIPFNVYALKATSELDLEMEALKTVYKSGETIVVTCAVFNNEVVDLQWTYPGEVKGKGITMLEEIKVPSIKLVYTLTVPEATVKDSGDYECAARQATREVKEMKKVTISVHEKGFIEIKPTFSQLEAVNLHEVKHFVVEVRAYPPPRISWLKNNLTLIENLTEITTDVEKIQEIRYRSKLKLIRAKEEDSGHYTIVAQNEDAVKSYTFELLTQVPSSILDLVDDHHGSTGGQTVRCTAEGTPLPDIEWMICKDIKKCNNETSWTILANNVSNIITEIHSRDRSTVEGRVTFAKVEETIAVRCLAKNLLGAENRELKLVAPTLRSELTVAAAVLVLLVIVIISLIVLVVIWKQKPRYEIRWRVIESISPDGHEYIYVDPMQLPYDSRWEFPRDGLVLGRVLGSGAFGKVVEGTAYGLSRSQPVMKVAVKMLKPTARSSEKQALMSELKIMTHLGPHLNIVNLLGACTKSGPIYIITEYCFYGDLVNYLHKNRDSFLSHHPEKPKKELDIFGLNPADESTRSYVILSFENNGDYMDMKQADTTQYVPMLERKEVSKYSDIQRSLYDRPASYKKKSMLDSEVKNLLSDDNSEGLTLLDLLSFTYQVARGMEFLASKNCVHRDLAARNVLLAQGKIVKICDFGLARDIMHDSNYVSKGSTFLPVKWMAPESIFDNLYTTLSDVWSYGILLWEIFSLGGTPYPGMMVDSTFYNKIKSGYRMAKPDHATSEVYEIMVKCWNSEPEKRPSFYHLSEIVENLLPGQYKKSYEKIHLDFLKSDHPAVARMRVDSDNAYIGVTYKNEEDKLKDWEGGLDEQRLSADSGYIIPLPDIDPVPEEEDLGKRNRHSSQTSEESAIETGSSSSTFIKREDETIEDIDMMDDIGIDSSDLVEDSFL

Compound	Activity [1] [%]	LC50 (M14) [µM]	TGI (786-0) [µM]	LC50 (SNB-75) [µM]	Activity [3] [%]	LC50 (EKVX [4]) [µM]	TGI (NCI-H460) [µM]	LC50 (IGROV-1 [5]) [µM]	LC50 (SF-539) [µM]	LC50 (UO-31) [µM]	LC50 (OVCAR-8) [µM]	LC50 (SK-MEL-5 [6]) [µM]	LC50 (SK-MEL-28 [8]) [µM]	LC50 (BT-549) [µM]	LC50 (COLO 205) [µM]	Activity [10] [%]	LC50 (DU-145) [µM]	LC50 (UACC-257 [11]) [µM]	Activity [13] [%]	Activity [15] [%]	further results
O=C(c1cccc(Nc2ncnc3ccccc23)c1)N1CCN(c2ncc(Cc3ccccc3)cn2)CC1	> 50	4.68	6.61	> 100	> 50	> 100	4.27	5.01	> 100	4.37	> 100	3.47	5.25	5.37	5.5	25	> 100	5.37	20	100	TGI (HCC 2998 [2]): 3.98 µM; Activity [7]: > 50%; Activity [9]: > 50%; TGI (Hs-578T): 7.41 µM; TGI (UACC-257 [12]): 2.63 µM; Activity [14]: 86%; Activity [16]: > 50%; LC50 (HCC 2998 [17]): 8.91 µM; TGI (EKVX [18]): 4.9 µM; TGI (NCI-H522): 2.09 µM; LC50 (SK-MEL-2): 5.89 µM; TGI (SK-MEL-5 [19]): 1.2 µM; LC50 (MOLT-4): > 100 µM; LC50 (MDA-MB-468): > 100 µM
c1ccc(Cc2cnc(N3CCN(c4ncnc5ccccc45)CC3)nc2)cc1	30	51.6	36.7	> 100	8.4	> 100	23.7	> 100	56.1	> 100	71.3	37.7	> 100	43	> 100	> 50	79.8	41.4	30	30	TGI (HCC 2998 [2]): 60.9 µM; TGI (IGROV-1 [20]): 63.3 µM; TGI (HL-60(TB)): 41.8 µM; TGI (Malme-3M): 33.6 µM; TGI (MCF7): 58.2 µM; TGI (SK-MEL-28 [21]): 99.3 µM; LC50 (HCC 2998 [17]): > 100 µM; TGI (EKVX [18]): 33.1 µM; TGI (CCRF-CEM): 64.4 µM; TGI (NCI-H522): 40.3 µM; LC50 (SK-MEL-2): 70.3 µM; TGI (SK-MEL-5 [19]): 13.9 µM; LC50 (MOLT-4): > 100 µM; LC50 (MDA-MB-468): > 100 µM
CCc1cnc(N2CCN(C(=O)c3ccc(CNc4ncnc5ccccc45)cc3)CC2)nc1	> 50	93.7	54.8	> 100	> 50	> 100	30.7	> 100	> 100	> 100	> 100	20.8	> 100	> 100	> 100	> 50	> 100	> 100	> 50	100	TGI (IGROV-1 [20]): 49.8 µM; Activity [7]: > 50%; Activity [9]: > 50%; TGI (Hs-578T): > 100 µM; TGI (HL-60(TB)): 38.6 µM; TGI (Malme-3M): 42.2 µM; TGI (MCF7): 72.8 µM; TGI (UACC-257 [12]): 26.8 µM; TGI (SK-MEL-28 [21]): > 100 µM; Activity [14]: 99%; Activity [16]: > 50%; LC50 (HCC 2998 [17]): > 100 µM; GI50 (CCRF-CEM): 10 µM; TGI (CCRF-CEM): 60.9 µM; TGI (NCI-H522): 55.4 µM; LC50 (SK-MEL-2): > 100 µM; LC50 (MOLT-4): > 100 µM; LC50 (MDA-MB-468): > 100 µM
